{"source": "paper PMC8966651", "about": "“PKPD Modeling of the Inoculum Effect of Acinetobacter baumannii on Polymyxin B in vivo” (Frontiers in Pharmacology, 2022)", "key": {"[1]": {"assay": "PMB plasma protein binding by ultrafiltration (Centrifree) of plasma from infected mice", "assay_type": "in vitro ADME", "conditions": "mouse plasma", "description": "The PK of PMB was determined in neutropenic mice infected with the bacterial inoculum size of 10^6 CFU/thigh (n = 56). Mice were anesthetized by isoflurane (AbbVie, Rungis, France) inhalation (3%) for 5 min at each sampling time. Blood samples were collected by intracardiac puncture into heparinized tubes up to 24 h after PMB administration for a total of 7 time points per dose level (n = 3 animals per time point). Plasma was separated from the whole blood after centrifugation at 4,000 rpm for 10 min at 4°C and divided into two samples. The first sample was used to determine total PMB concentrations and the second one (0.15 ml) was ultrafiltered (4000 rpm for 30 min at room temperature) using Centrifree® ultrafiltration devices from Millipore (Merck KGaA) to determine unbound PMB concentrations and consequently protein binding. The non-specific binding of PMB to the membrane of the Centrifree® ultrafiltration devices ([Sader et al., 2012]) was determined by ultrafiltration of PMB solutions in phosphate buffer (pH7.2) at concentrations ranging from 0.2 to 7.5 mg/L and was used to correct ultrafiltrate concentrations. Plasma samples and ultrafiltrates were stored at −20°C until further analysis. Total and unbound PMB concentrations were determined by a liquid chromatography tandem mass spectrometry (LS-MS/MS) method (Supplemental Material).\nA saturable non-specific binding (NSB) of PMB to the ultrafiltration membrane, translating to a non-linear decrease of PMB NSB when PMB concentration increased, was observed (Supplementary Figure S1) and could be described by the following equation: NSB = 0.47−0.16×ln(UF) (3) Where NSB corresponds to the non-specific binding (%) and UF to PMB concentrations in ultrafiltrates (mg/L). Equation 3 was used to correct ultrafiltrates concentrations, as follows: Unbound concentrations = UF/1−NSB (4)"}, "[2]": {"conditions": "ultracentrifugation, ref Landersdorfer et al., 2018, cited from earlier work", "text": "This discrepancy may be explained by differences in methodology. We used ultra-filtration after correction for non-specific adsorption on membranes to determine unbound fraction individually in infected mice, whereas the previous study used ultracentrifugation and pooled plasma sampled drawn from infected mi ..."}}, "note": "Counter-ions that a name gives are not always drawn. Like-named read-outs stand apart in the source and are kept apart here. Bridge positions count the residues as written; N and C are the ends. Square brackets hold non-standard residues; d marks the D form. Peptide text beside a SMILES is read from it. * marks the point of attachment. X1 = CC[C@H](C)CCCCC(=O)*; Dab = NCC[C@H](N)C(=O)O", "data": [{"smiles": "CC[C@H](C)CCCCC(=O)N[C@@H](CCN)C(=O)N[C@H](C(=O)N[C@@H](CCN)C(=O)N[C@H]1CCNC(=O)[C@H]([C@@H](C)O)NC(=O)[C@H](CCN)NC(=O)[C@H](CCN)NC(=O)[C@H](CC(C)C)NC(=O)[C@@H](Cc2ccccc2)NC(=O)[C@H](CCN)NC1=O)[C@@H](C)O", "note": "[PMB, Polymyxin B sulfate] (X1-[Dab]T[Dab][Dab][Dab][dF]L[Dab][Dab]T; lactam 4-C)", "values": [{"measurement": "fraction unbound", "setting": "[1]; male, Swiss RjOrl, sc, infected mice, ultrafiltration 4000 rpm 30 min room temperature, corrected for non-specific binding to membrane, LC-MS/MS, model estimate (%RSE)", "result": 0.166}, {"measurement": "unbound fraction", "setting": "[1]; infected mice, ultrafiltration corrected for non-specific binding, model estimate", "result": 17, "unit": "%"}, {"measurement": "plasma protein binding", "setting": "[1]; ultrafiltration, this study", "result": "~80", "unit": "%"}, {"measurement": "plasma protein binding", "setting": "[2]; mouse plasma, pooled plasma spiked with PMB", "result": "~90", "unit": "%"}, {"measurement": "unbound fraction", "setting": "[2]; pooled plasma from infected mice spiked with PMB", "result": 0.086}]}]}
